{
  "source": "patent US11986452B2",
  "about": "“Methods of reducing the risk of heart failure” (Amarin Pharmaceuticals Ireland Limited, priority 2021, dated 2024)",
  "key": {"[1]": {"test_system": "statin-treated patients with established CVD or at high risk for CVD, and hypertriglyceridemia", "experiment": "REDUCE-IT time-to-first-event analysis of adjudicated cardiovascular endpoints (primary, key secondary, secondary, tertiary)", "format": "in vivo, human", "text": "The following study, also referred to as the REDUCE-IT clinical trial, was a large cardiovascular (CV) outcome trial designed to assess CV risk reduction benefit of AMR101 treatment (commercially known as VASCEPA®) versus placebo on the 5-point primary composite endpoint: CV death, non-fatal stroke, non-fatal myocardial infarction (MI), coronary revascularizations, or unstable angina requiring hospitalization.\nA multi-center, prospective, randomized, double-blind, placebo-controlled, parallel-group study was performed to evaluate the effect of AMR101 (4 g per day) on cardiovascular health and mortality in hypertriglyceridemic patients with cardiovascular disease or at high risk for cardiovascular disease. The intended expanded indication of the study was treatment with AMR101 as an add-on to statin therapy to reduce the risk of cardiovascular events in patients with clinical cardiovascular disease or with multiple risk factors for cardiovascular disease.\nThe primary objective of this study was, in patients at LDL-C goal while on statin therapy, with established cardiovascular disease (CVD) or at high risk for CVD, and hypertriglyceridemia (e.g., fasting triglycerides (TG) 200 mg/dL and <500 mg/dL), to evaluate the effect of AMR101 4 g daily on time from randomization to first occurrence of any component of the composite of the following major CV events: CV death; nonfatal MI; (including silent MI; electrocardiograms (ECGs) were performed annually for the detection of silent MIs); nonfatal stroke; coronary revascularization; and unstable angina determined to be caused by myocardial ischemia by invasive/non-invasive testing and requiring emergent hospitalization.\nThe key secondary objective of this study was to evaluate the effect of AMR101 4 g daily on the time from randomization to the first occurrence of the composite of following major CV events: CV death, nonfatal MI (including silent MI), and nonfatal stroke.\nOther secondary objectives for this study were to evaluate the effect of therapy on time from randomization to the first occurrence of the following individual or composite endpoints: composite of CV death or nonfatal MI (including silent MI); fatal or nonfatal MI (including silent MI); non-elective coronary revascularization represented as the composite of emergent or urgent classifications; CV death; unstable angina determined to be caused by myocardial ischemia by invasive/non-invasive testing and requiring emergent hospitalization; fatal or nonfatal stroke; composite of total mortality, nonfatal MI (including silent MI), or nonfatal stroke; and total mortality.\nPrimary Efficacy Endpoint: The primary efficacy endpoint was time from randomization to the first occurrence of the composite of the following clinical events: CV death; nonfatal MI (including silent MI; ECGs were performed annually for the detection of silent MIs); nonfatal stroke; coronary revascularization; and unstable angina determined to be caused by myocardial ischemia by invasive/non-invasive testing and requiring emergent hospitalization. The first occurrence of any of these major adverse vascular events during the follow-up period of the study were included in the incidence.\nSecondary Efficacy Endpoints: The key secondary efficacy endpoint was the time from randomization to the first occurrence of the composite of CV death, nonfatal MI (including silent MI), or nonfatal stroke. […]"}, "[2]": {"test_system": "statin-treated patients in the icosapent ethyl group", "experiment": "Example 5: new heart failure by on-treatment EPA tertile (post hoc)", "format": "in vivo, human", "conditions": "for New heart failure requiring hospitalization: HR vs lowest on treatment EPA tertile / New heart failure: HR vs lowest on treatment EPA tertile: post hoc, icosapent ethyl group only", "text": "The mechanical or surgical intervention including mechanical circulatory support (e.g., intra-aortic balloon pump, ventricular assist device) and/or mechanical fluid removal (e.g., ultrafiltration, hemofiltration, dialysis).\nNew Heart Failure/Heart Failure Not Requiring Hospitalization: is defined as an event that meets all of the following: the patient has an urgent, unscheduled office/practice or emergency department visit for a primary diagnosis of HF, but not meeting the criteria for a HF hospitalization; all signs and symptoms for HF hospitalization must be met as defined in A Heart Failure Hospitalization above; and the patient receives initiation or intensification of treatment specifically for HF, as detailed in the above section with the exception of oral diuretic therapy, which was not sufficient.\nThe study design was the same as that described above in Example 1 related to the REDUCE-IT clinical trial.\nPrespecified tertiary endpoints of NHF (HR=0.95; 95% CI, 0.77-1.17; p=0.63) and NHF requiring hospitalization (HR=0.97; 0.77-1.22; p=0.78) from the REDUCE-IT clinical trial were not significant."}, "[3]": {"conditions": "4 g per day, hierarchical testing"}, "[4]": {"conditions": "4 g/day, time to first occurrence, ITT, median follow up 4.9 years"}},
  "data": [
    {"smiles": "CC/C=C\\C/C=C\\C/C=C\\C/C=C\\C/C=C\\CCCC(=O)OCC", "note": "[icosapent ethyl, eicosapentaenoic acid ethyl ester]", "values": [
      {"measurement": "Cardiovascular death: RRR", "setting": "[1]; [3]", "value": 20, "unit": "%"},
      {"measurement": "Composite of cardiovascular death or nonfatal myocardial infarction: RRR", "setting": "[1]; [3]", "value": 25, "unit": "%"},
      {"measurement": "Composite of total mortality, nonfatal myocardial infarction, or nonfatal stroke: reduction", "setting": "[1]; [3]", "value": 23, "unit": "%"},
      {"measurement": "Fatal or nonfatal myocardial infarction: RRR", "setting": "[1]; [3]", "value": 31, "unit": "%"},
      {"measurement": "Fatal or nonfatal stroke: RRR", "setting": "[1]; [3]", "value": 28, "unit": "%"},
      {"measurement": "Total mortality: reduction", "setting": "[1]; [3]", "value": 13, "unit": "%"},
      {"measurement": "Sudden death: reduction", "setting": "[1]; 4 g/day vs placebo", "value": 31, "unit": "%"},
      {"measurement": "Cardiovascular death: HR vs placebo", "setting": "[1]; 4 g/day, ITT", "value": 0.80},
      {"measurement": "Cardiovascular death: patients with event", "setting": "[1]; 4 g/day, ITT", "value": 4.3, "unit": "%"},
      {"measurement": "Total mortality: HR vs placebo", "setting": "[1]; 4 g/day, ITT", "value": 0.87},
      {"measurement": "Total mortality: patients with event", "setting": "[1]; 4 g/day, ITT", "value": 6.7, "unit": "%"},
      {"measurement": "Key secondary composite endpoint (CV death, nonfatal MI, or nonfatal stroke): patients with event", "setting": "[1]; [4]", "value": 11.2, "unit": "%"},
      {"measurement": "Primary composite endpoint (CV death, nonfatal MI, nonfatal stroke, coronary revascularization, or unstable angina): patients with event", "setting": "[1]; [4]", "value": 17.2, "unit": "%"},
      {"measurement": "Cardiac Arrest: HR vs placebo", "setting": "[1]; tertiary endpoint", "value": 0.52},
      {"measurement": "Coronary Revascularization: HR vs placebo", "setting": "[1]; tertiary endpoint", "value": 0.66},
      {"measurement": "Elective Revascularization: HR vs placebo", "setting": "[1]; tertiary endpoint", "value": 0.68},
      {"measurement": "Emergent Revascularization: HR vs placebo", "setting": "[1]; tertiary endpoint", "value": 0.62},
      {"measurement": "Ischemic Stroke: HR vs placebo", "setting": "[1]; tertiary endpoint", "value": 0.64},
      {"measurement": "New Heart Failure Requiring Hospitalization: HR vs placebo", "setting": "[1]; tertiary endpoint", "value": 0.97},
      {"measurement": "New Heart Failure: HR vs placebo", "setting": "[1]; tertiary endpoint", "value": 0.95},
      {"measurement": "Primary Endpoint in Patients with Diabetes at Baseline: HR vs placebo", "setting": "[1]; tertiary endpoint", "value": 0.77},
      {"measurement": "Salvage Revascularization: HR vs placebo", "setting": "[1]; tertiary endpoint", "value": 0.00},
      {"measurement": "Sudden Cardiac Death: HR vs placebo", "setting": "[1]; tertiary endpoint", "value": 0.69},
      {"measurement": "Urgent Revascularization: HR vs placebo", "setting": "[1]; tertiary endpoint", "value": 0.66},
      {"measurement": "Primary Endpoint in Patients with Diabetes at Baseline: patients with event", "setting": "[1]; tertiary endpoint, 4 g/day", "value": "(18.1%)"},
      {"measurement": "Sudden Cardiac Death: patients with event", "setting": "[1]; tertiary endpoint, 4 g/day", "value": "(1.5%)"},
      {"measurement": "Achieved EPA level with statistically and clinically meaningful risk reductions in NHF", "setting": "[2]; EPA tertile analyses within icosapent ethyl group", "value": "above 104 μg/mL"},
      {"measurement": "New heart failure requiring hospitalization: HR vs lowest on treatment EPA tertile", "setting": "[2]; middle EPA tertile", "value": 0.47},
      {"measurement": "New heart failure: HR vs lowest on treatment EPA tertile", "setting": "[2]; middle EPA tertile", "value": 0.55},
      {"measurement": "New heart failure requiring hospitalization: HR vs lowest on treatment EPA tertile", "setting": "[2]; upper EPA tertile", "value": 0.45},
      {"measurement": "New heart failure: HR vs lowest on treatment EPA tertile", "setting": "[2]; upper EPA tertile", "value": 0.41}
    ]}
  ]
}
